Results reported in PubChem BioAssay AID330 (DTP/NCI, 2004).
Values joined by “and” are separate entries in the source; they are usually repeats but may differ in a detail not shown here. Equal entries are not always repeated. Toxic doses and inconclusive results are not listed.

Test system: P388 leukemia ip, CD2F1 mice, survival T/C
Test: NCI In Vivo Anticancer Drug Screen. Data for tumor model P388 Leukemia (intraperitoneal) in CD2F1 (CDF1) mice
Settings: endpoint: median survival time, higher = longer survival
Protocol: The antitumor activity of compounds was measured in mice bearing transplantable tumors. Survival or tumor size were measured and the results are expressed as the measurement made in the treated group (T) divided by the measurement made in the vehicle treated control group (C). The tumor model used in this assay is P388 Leukemia (intraperitoneal) in CD2F1 (CDF1) mice

[1] = dose: 50.0 mg/kg/injection, schedule: Q01DX009 (ip), vehicle: Klucel (hydroxypropylcellulose) (HPC)
[2] = dose: 100.0 mg/kg/injection, schedule: Q01DX009 (ip), vehicle: Klucel (hydroxypropylcellulose) (HPC)
[3] = dose: 60.0 mg/kg/injection, schedule: Q01DX005 (ip), vehicle: Klucel (hydroxypropylcellulose) (HPC)
[4] = dose: 120.0 mg/kg/injection, schedule: Q01DX005 (ip), vehicle: Klucel (hydroxypropylcellulose) (HPC)
[5] = dose: 6.25 mg/kg/injection, schedule: Q01DX009 (ip), vehicle: saline
[6] = dose: 12.5 mg/kg/injection, schedule: Q01DX009 (ip), vehicle: saline

Cc1ccc2c(c1)sc1nnc(Cl)n12 was tested, and the T/C [1] was 100 % of control, the T/C [2] was 94 % of control and the T/C (dose: 200.0 mg/kg/injection, schedule: Q01DX009 (ip), vehicle: Klucel (hydroxypropylcellulose) (HPC)) was 88 % of control.

O=C(OCC1C=C(OC(=O)c2ccccc2)C(=O)C(OC(=O)c2ccccc2)O1)c1ccccc1 (configuration not stated) was tested, and the T/C (dose: 6.25 mg/kg/injection, schedule: Q01DX009 (ip), vehicle: saline with Tween-80) was 98 % of control, the T/C (dose: 12.5 mg/kg/injection, schedule: Q01DX009 (ip), vehicle: saline with Tween-80) was 94 % of control and the T/C (dose: 25.0 mg/kg/injection, schedule: Q01DX009 (ip), vehicle: saline with Tween-80) was 86 % of control. For the same compound, the T/C (dose: 50.0 mg/kg/injection, schedule: Q01DX009 (ip), vehicle: saline with Tween-80) was 89 % of control, the T/C (dose: 100.0 mg/kg/injection, schedule: Q01DX009 (ip), vehicle: saline with Tween-80) was 93 % of control and the T/C (dose: 200.0 mg/kg/injection, schedule: Q01DX009 (ip), vehicle: saline with Tween-80) was 102 % of control.

For CNC(=O)SC1=NS(=O)(=O)c2ccc(Cl)cc2N1, the T/C [3] was 110 % of control and the T/C [4] was 107 % of control.

NC(=O)N/N=C1\CCC2CCCCC2C1 (configuration not stated) was tested, and the T/C (dose: 25.0 mg/kg/injection, schedule: Q01DX001 (ip), vehicle: Klucel (hydroxypropylcellulose) (HPC)) was 107 % of control, the T/C (dose: 50.0 mg/kg/injection, schedule: Q01DX001 (ip), vehicle: Klucel (hydroxypropylcellulose) (HPC)) was 101 % of control and the T/C (dose: 100.0 mg/kg/injection, schedule: Q01DX001 (ip), vehicle: Klucel (hydroxypropylcellulose) (HPC)) was 100 % of control.

In the case of CC(=O)NS(=O)(=O)c1ccc(NC(=O)c2ccco2)cc1, the T/C (dose: 50.0 mg/kg/injection, schedule: Q01DX009 (ip), vehicle: saline + alcohol) was 98 % of control, the T/C (dose: 100.0 mg/kg/injection, schedule: Q01DX009 (ip), vehicle: saline + alcohol) was 104 % of control and the T/C (dose: 200.0 mg/kg/injection, schedule: Q01DX009 (ip), vehicle: saline + alcohol) was 91 % of control.

With C=CCCCC/C=C/C=C/C#CC#C/C=C/COC(C)=O the T/C (dose: 12.5 mg/kg/injection, schedule: Q01DX009 (ip), vehicle: Klucel (hydroxypropylcellulose) (HPC)) was 100 % of control, the T/C (dose: 25.0 mg/kg/injection, schedule: Q01DX009 (ip), vehicle: Klucel (hydroxypropylcellulose) (HPC)) was 106 % of control and the T/C [1] was 106 % of control. The T/C [2] was 106 % of control.

For CC(=O)C(C(C)=O)=[Se](c1ccccc1)c1ccccc1, the T/C (dose: 100.0 mg/kg/injection, schedule: Q04DX002 (ip), vehicle: saline) was 99 % of control, the T/C (dose: 200.0 mg/kg/injection, schedule: Q04DX002 (ip), vehicle: saline) was 100 % of control and the T/C (dose: 400.0 mg/kg/injection, schedule: Q04DX002 (ip), vehicle: saline) was 99 % of control.

With COC(=O)CCCCCCCCCCN(CCCl)CCCl the T/C [5] was 160 % of control and 169 % of control and the T/C [6] was 89 % of control.

For COc1ccc(C(c2cc3c(cc2O)OCO3)N2CCCCC2)c(OC)c1 (configuration not stated), the T/C [3] was 108 % of control, the T/C [4] was 110 % of control and the T/C (dose: 240.0 mg/kg/injection, schedule: Q01DX005 (ip), vehicle: Klucel (hydroxypropylcellulose) (HPC)) was 117 % of control.

With CCCCCCCCCCCCNc1ncnc2[nH]ncc12 the T/C (dose: 50.0 mg/kg/injection, schedule: Q01DX005 (ip), vehicle: saline with Tween-80) was 102 % of control, the T/C (dose: 100.0 mg/kg/injection, schedule: Q01DX005 (ip), vehicle: saline with Tween-80) was 98 % of control and the T/C (dose: 200.0 mg/kg/injection, schedule: Q01DX005 (ip), vehicle: saline with Tween-80) was 98 % of control.

For Nc1ccncc1N, the T/C (dose: 2.5 mg/kg/injection, schedule: Q01DX009 (ip), vehicle: saline) was 94 % of control, the T/C (dose: 3.12 mg/kg/injection, schedule: Q01DX009 (ip), vehicle: saline) was 101 % of control and the T/C (dose: 5.0 mg/kg/injection, schedule: Q01DX009 (ip), vehicle: saline) was 106 % of control. For the same compound, the T/C [5] was 97 % of control, the T/C (dose: 10.0 mg/kg/injection, schedule: Q01DX009 (ip), vehicle: saline) was 100 % of control and the T/C [6] was 103 % of control. For the same compound, the T/C (dose: 20.0 mg/kg/injection, schedule: Q01DX009 (ip), vehicle: saline) was 93 % of control.

C=CC(C=C)O[Si](C)(C)C(C)(C)C was tested, and the T/C (dose: 23.0 mg/kg/injection, schedule: Q01DX005 (ip), vehicle: saline) was 101 % of control, the T/C (dose: 46.0 mg/kg/injection, schedule: Q01DX005 (ip), vehicle: saline) was 105 % of control and the T/C (dose: 92.0 mg/kg/injection, schedule: Q01DX005 (ip), vehicle: saline) was 105 % of control.
